Target: T1, HMG CoA Reductase (Mus musculus, UniProt Q01237)
T1 construct: 10% homogenates of CF1 male mouse liver; from tissue; host or cells: CF1 male mouse liver, post-mitochondrial supernatant
T1 sequence (Q01237 1-887): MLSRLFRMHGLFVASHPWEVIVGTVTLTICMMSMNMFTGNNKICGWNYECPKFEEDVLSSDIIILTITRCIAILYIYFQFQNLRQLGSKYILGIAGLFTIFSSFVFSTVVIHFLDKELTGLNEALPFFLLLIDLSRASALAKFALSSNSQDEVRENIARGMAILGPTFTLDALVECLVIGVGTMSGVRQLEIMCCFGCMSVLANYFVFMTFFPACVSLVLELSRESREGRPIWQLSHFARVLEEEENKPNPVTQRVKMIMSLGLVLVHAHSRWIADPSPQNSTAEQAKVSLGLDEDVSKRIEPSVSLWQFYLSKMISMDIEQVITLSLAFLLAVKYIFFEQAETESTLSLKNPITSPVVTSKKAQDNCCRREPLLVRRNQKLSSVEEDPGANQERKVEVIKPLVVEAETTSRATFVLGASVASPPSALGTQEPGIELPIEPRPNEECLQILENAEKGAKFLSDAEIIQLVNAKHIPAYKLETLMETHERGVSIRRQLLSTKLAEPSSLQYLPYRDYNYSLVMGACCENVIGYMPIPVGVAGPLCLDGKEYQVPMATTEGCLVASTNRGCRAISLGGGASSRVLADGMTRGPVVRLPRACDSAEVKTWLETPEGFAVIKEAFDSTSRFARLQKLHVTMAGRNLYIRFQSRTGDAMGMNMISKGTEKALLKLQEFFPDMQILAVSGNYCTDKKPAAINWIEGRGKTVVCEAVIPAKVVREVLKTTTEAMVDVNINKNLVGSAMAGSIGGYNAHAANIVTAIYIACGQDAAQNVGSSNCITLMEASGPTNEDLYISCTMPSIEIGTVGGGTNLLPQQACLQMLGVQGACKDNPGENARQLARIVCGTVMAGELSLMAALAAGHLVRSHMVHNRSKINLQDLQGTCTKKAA
Test: In vivo liver enzyme study: HMG CoA reductase
Conditions: CF1 liver after 16 days i.p.
Procedure: In vitro enzymatic studies were determined using 10% homogenates of CF1 male mouse liver with 50-200 μM of test drugs. In vivo enzymatic studies were determined using 10% homogenates of liver from CF1 male mice obtained after administering the agents for 16 days at a dose ranging from 2.5-20 mg/kg/day intraperitoneally. The liver homogenates for both in vitro and in vivo studies were prepared in 0.25M sucrose and 0.001M (ethylenedinitrilo)tetraacetic acid. Acetyl coenzyme A synthetase and adenosine triphosphate dependent citrate lyase activities were determined spectrophotometrically at 540 nm as the hydroxylamate of acetyl coenzyme A formed after 30 min at 37° C. Mitochondrial citrate exchange was determined by the procedure of Robinson et al [Eur. J. Biochem., 216, 63 (1970)] using ^14 C-sodium bicarbonate (41 mCi/mmol) incorporated into mitochondrial ^14 C-citrate after isolating rat mitochondria (9000 g×10 min) from the homogenates. The exchanges of the ^14 C-citrate were determined after incubating the mitochondrial fraction which was loaded with labeled citrate and test drugs for 10 min. Then the radioactivity was measured in the mitochondrial and supernantant fractions in scintillation fluid and expressed as a percentage. Cholesterol side chain oxidation was determined by the method of Kritchevsky and Tepper [Artherosclerosis, 18, 93 (1973)] using (26-^14 C) cholesterol (50 mCi/mmol) and mitochondria isolated from rat liver homogenates. […] Fatty acid synthetase activity was determined by the method of Brady et al [J. Biol. Chem., 235, 3093 (1960)] using [2-^14 C] malonyl-coenzyme A (37.5 mCi/mmol) which was incorporated into newly synthesized fatty acids that were extracted with ether and counted. Acyl transferase activity was determined with glycerol-3phosphate [L-2-^3 H(N)] […] HCl and counted. Phosphatidate phosphohydrolase activity was measured as the inorganic phosphate released after 30 min from phosphatidic acid by the method of Mavis et al [J. Lipid Res., 19, 467 (1978)]. […]

{Cu[(CH3)3 N.BH2 CO2 ]2.(CH3)3 N.BH2 COOH} [Compound I]
HMG CoA Reductase (2.5 mg/kg): 112 ± 8% of control | HMG CoA Reductase (5.0 mg/kg): 108 ± 9% of control | HMG CoA Reductase (10 mg/kg): 102 ± 8% of control
